Test results reported in patent publication US20250129018A1, “PLEUROMUTILIN DERIVATIVES CONTAINING CYCLOALKYL GROUP AND PREPARATION METHODS AND APPLICATIONS THEREOF” (priority 2023, published 2025).
In brackets after ≈: the same amount, converted by molar mass. Like-named read-outs stand apart in the source and are kept apart here.

Assays:
[1] = tested on: S. aureus-19; assay: MIC, clinical strain; assay type: cell-based, Staphylococcus aureus
Method: (§1) The pleuromutilin derivatives 1-4 prepared from Example 9 of the present disclosure were determined for their effect on Methicillin-resistant Staphylococcus aureus, Methicillin-resistant Staphylococcus epidermidis, standard strains of Staphylococcus aureus (S. aureus-29213 and S. aureus-25923), clinical strains 1-48 of S. aureus, Escherichia coli, S. agalactiae and S. dysgalactiae equisimilis (S. dysgalactiae-1, S. dysgalactiae-2, S. dysgalactiae-3) and minimum inhibitory concentration (MIC) using a two-fold serial dilution method, and the results were shown in Table 1, Table 2 and Table 3. The standard strains are commercially available from ATCC, and the clinical strains are preserved by Lanzhou Institute of Husbandry and Pharmaceutical Science of Chinese Academy of Agricultural Sciences (Lanzhou, Gansu, China).

[2] = tested on: S. aureus-1; assay: MIC, clinical strain; assay type: cell-based, Staphylococcus aureus
Method: as §1

[3] = tested on: S. aureus-46; assay: MIC, clinical strain; assay type: cell-based, Staphylococcus aureus
Method: as §1

[4] = tested on: S. aureus-45; assay: MIC, clinical strain; assay type: cell-based, Staphylococcus aureus
Method: as §1

[5] = tested on: S. aureus-7; assay: MIC, clinical strain; assay type: cell-based, Staphylococcus aureus
Method: as §1

[6] = tested on: S. aureus-39; assay: MIC, clinical strain; assay type: cell-based, Staphylococcus aureus
Method: as §1

[7] = tested on: S. aureus-30; assay: MIC, clinical strain; assay type: cell-based, Staphylococcus aureus
Method: as §1

[8] = tested on: S. aureus-2; assay: MIC, clinical strain; assay type: cell-based, Staphylococcus aureus
Method: as §1

[9] = tested on: S. aureus-40; assay: MIC, clinical strain; assay type: cell-based, Staphylococcus aureus
Method: as §1

[10] = tested on: S. aureus-35; assay: MIC, clinical strain; assay type: cell-based, Staphylococcus aureus
Method: as §1

[11] = tested on: S. aureus-12; assay: MIC, clinical strain; assay type: cell-based, Staphylococcus aureus
Method: as §1

[12] = tested on: S. aureus-21; assay: MIC, clinical strain; assay type: cell-based, Staphylococcus aureus
Method: as §1

[13] = tested on: S. aureus-32; assay: MIC, clinical strain; assay type: cell-based, Staphylococcus aureus
Method: as §1

[14] = tested on: S. aureus-5; assay: MIC, clinical strain; assay type: cell-based, Staphylococcus aureus
Method: as §1

[15] = tested on: S. aureus-15; assay: MIC, clinical strain; assay type: cell-based, Staphylococcus aureus
Method: as §1

[16] = tested on: S. aureus-25; assay: MIC, clinical strain; assay type: cell-based, Staphylococcus aureus
Method: as §1

[17] = tested on: S. aureus-38; assay: MIC, clinical strain; assay type: cell-based, Staphylococcus aureus
Method: as §1

[18] = tested on: S. aureus-9; assay: MIC, clinical strain; assay type: cell-based, Staphylococcus aureus
Method: as §1

[19] = tested on: S. aureus-41; assay: MIC, clinical strain; assay type: cell-based, Staphylococcus aureus
Method: as §1

[20] = tested on: S. aureus-27; assay: MIC, clinical strain; assay type: cell-based, Staphylococcus aureus
Method: as §1

[21] = tested on: S. aureus-22; assay: MIC, clinical strain; assay type: cell-based, Staphylococcus aureus
Method: as §1

[22] = tested on: S. aureus-48; assay: MIC, clinical strain; assay type: cell-based, Staphylococcus aureus
Method: as §1

[23] = tested on: S. aureus-23; assay: MIC, clinical strain; assay type: cell-based, Staphylococcus aureus
Method: as §1

[24] = tested on: S. aureus-11; assay: MIC, clinical strain; assay type: cell-based, Staphylococcus aureus
Method: as §1

[25] = tested on: S. aureus-47; assay: MIC, clinical strain; assay type: cell-based, Staphylococcus aureus
Method: as §1

[26] = tested on: S. aureus-18; assay: MIC, clinical strain; assay type: cell-based, Staphylococcus aureus
Method: as §1

[27] = tested on: S. aureus-16; assay: MIC, clinical strain; assay type: cell-based, Staphylococcus aureus
Method: as §1

[28] = tested on: S. aureus-28; assay: MIC, clinical strain; assay type: cell-based, Staphylococcus aureus
Method: as §1

[29] = tested on: S. aureus-4; assay: MIC, clinical strain; assay type: cell-based, Staphylococcus aureus
Method: as §1

[30] = tested on: S. aureus-8; assay: MIC, clinical strain; assay type: cell-based, Staphylococcus aureus
Method: as §1

[31] = tested on: S. aureus-14; assay: MIC, clinical strain; assay type: cell-based, Staphylococcus aureus
Method: as §1

[32] = tested on: S. aureus-6; assay: MIC, clinical strain; assay type: cell-based, Staphylococcus aureus
Method: as §1

[33] = tested on: S. aureus-33; assay: MIC, clinical strain; assay type: cell-based, Staphylococcus aureus
Method: as §1

[34] = tested on: S. aureus-31; assay: MIC, clinical strain; assay type: cell-based, Staphylococcus aureus
Method: as §1

[35] = tested on: S. aureus-3; assay: MIC, clinical strain; assay type: cell-based, Staphylococcus aureus
Method: as §1

[36] = tested on: S. aureus-10; assay: MIC, clinical strain; assay type: cell-based, Staphylococcus aureus
Method: as §1

[37] = tested on: S. aureus-34; assay: MIC, clinical strain; assay type: cell-based, Staphylococcus aureus
Method: as §1

[38] = tested on: S. aureus-36; assay: MIC, clinical strain; assay type: cell-based, Staphylococcus aureus
Method: as §1

[39] = tested on: S. aureus-24; assay: MIC, clinical strain; assay type: cell-based, Staphylococcus aureus
Method: as §1

[40] = tested on: S. aureus-43; assay: MIC, clinical strain; assay type: cell-based, Staphylococcus aureus
Method: as §1

[41] = tested on: E. coli-25922; assay: MIC, two-fold serial dilution method; assay type: cell-based, Escherichia coli; conditions: for MIC: Escherichia coli, read-out: minimum inhibitory concentration
Method: as §1

[42] = tested on: S. agalactiae-1; assay: MIC, two-fold serial dilution method; assay type: cell-based; conditions: for MIC: Streptococcus agalactiae, read-out: minimum inhibitory concentration
Method: as §1

C=C[C@]1(C)C[C@@H](OC(=O)CSCCN(CC)CC)[C@]2(C)[C@H](C)CC[C@]3(CCC(=O)[C@H]32)[C@@H](C)[C@@H]1O [Tiamulin]
in vitro minimum inhibitory concentration [1]: 0.5 | in vitro minimum inhibitory concentration [2]: 0.5 µg/mL | in vitro minimum inhibitory concentration [3]: 1 | in vitro minimum inhibitory concentration [4]: 1 | in vitro minimum inhibitory concentration [5]: 1 | in vitro minimum inhibitory concentration [6]: 0.25 | in vitro minimum inhibitory concentration [7]: 0.5 | in vitro minimum inhibitory concentration [8]: 0.5 | in vitro minimum inhibitory concentration [9]: 1 | in vitro minimum inhibitory concentration [10]: 0.5 | in vitro minimum inhibitory concentration [11]: 0.5 | in vitro minimum inhibitory concentration [12]: 0.5 µg/mL | in vitro minimum inhibitory concentration [13]: 1 | in vitro minimum inhibitory concentration [14]: 0.5 | in vitro minimum inhibitory concentration [15]: 0.5 µg/mL | in vitro minimum inhibitory concentration [16]: 0.5 | in vitro minimum inhibitory concentration [17]: 0.5 | in vitro minimum inhibitory concentration [18]: 0.5 | in vitro minimum inhibitory concentration [19]: 0.5 | in vitro minimum inhibitory concentration [20]: 0.5 | in vitro minimum inhibitory concentration [21]: 0.5 µg/mL | in vitro minimum inhibitory concentration [22]: 0.5 | in vitro minimum inhibitory concentration [23]: 0.5 | in vitro minimum inhibitory concentration [24]: 0.5 | in vitro minimum inhibitory concentration [25]: 0.5 | in vitro minimum inhibitory concentration [26]: 0.125 | in vitro minimum inhibitory concentration [27]: 0.5 | in vitro minimum inhibitory concentration [28]: 1 | in vitro minimum inhibitory concentration [29]: 0.5 | in vitro minimum inhibitory concentration [30]: 0.5 | in vitro minimum inhibitory concentration [31]: 0.5 | in vitro minimum inhibitory concentration [32]: 0.25 | in vitro minimum inhibitory concentration [33]: 1 | in vitro minimum inhibitory concentration [34]: 0.5 | in vitro minimum inhibitory concentration [35]: 0.5 | in vitro minimum inhibitory concentration [36]: 0.5 | in vitro minimum inhibitory concentration [37]: 0.5 | in vitro minimum inhibitory concentration [38]: 0.25 | in vitro minimum inhibitory concentration [39]: 0.25 | in vitro minimum inhibitory concentration [40]: 1 | MIC ([41]; E. coli-25922): > 16 µg/mL | MIC ([42]; S. agalactiae-1): 0.25 µg/mL (≈ 0.506 µM)

C=CC1(C)CC(OC(=O)CSC(C)(C)CNC(=O)C2CCC2)C2(C)C(C)CCC3(CCC(=O)C32)C(C)C1O (stereo not drawn) [derivative 2]
in vitro minimum inhibitory concentration [1]: 0.125 | in vitro minimum inhibitory concentration ([2]; in µg/mL): 0.125 | in vitro minimum inhibitory concentration [3]: 0.063 | in vitro minimum inhibitory concentration [4]: 0.125 | in vitro minimum inhibitory concentration [5]: 0.063 | in vitro minimum inhibitory concentration [6]: 0.016 | in vitro minimum inhibitory concentration [7]: 0.031 | in vitro minimum inhibitory concentration [8]: 0.063 | in vitro minimum inhibitory concentration [9]: 0.016 | in vitro minimum inhibitory concentration [10]: 0.125 | in vitro minimum inhibitory concentration [11]: 0.031 | in vitro minimum inhibitory concentration ([12]; in µg/mL): 0.063 | in vitro minimum inhibitory concentration [13]: 0.063 | in vitro minimum inhibitory concentration [14]: 0.031 | in vitro minimum inhibitory concentration ([15]; in µg/mL): 0.031 | in vitro minimum inhibitory concentration [16]: 0.063 | in vitro minimum inhibitory concentration [17]: 0.016 | in vitro minimum inhibitory concentration [18]: 0.063 | in vitro minimum inhibitory concentration [19]: 0.031 | in vitro minimum inhibitory concentration [20]: 0.031 | in vitro minimum inhibitory concentration ([21]; in µg/mL): 0.063 | in vitro minimum inhibitory concentration [22]: 0.063 | in vitro minimum inhibitory concentration [23]: 0.063 | in vitro minimum inhibitory concentration [24]: 0.063 | in vitro minimum inhibitory concentration [25]: 0.063 | in vitro minimum inhibitory concentration [26]: 0.031 | in vitro minimum inhibitory concentration [27]: 0.031 | in vitro minimum inhibitory concentration [28]: 0.063 | in vitro minimum inhibitory concentration [29]: 0.063 | in vitro minimum inhibitory concentration [30]: 0.063 | in vitro minimum inhibitory concentration [31]: 0.063 | in vitro minimum inhibitory concentration [32]: 0.031 | in vitro minimum inhibitory concentration [33]: 0.031 | in vitro minimum inhibitory concentration [34]: 0.031 | in vitro minimum inhibitory concentration [35]: 0.031 | in vitro minimum inhibitory concentration [36]: 0.063 | in vitro minimum inhibitory concentration [37]: 0.063 | in vitro minimum inhibitory concentration [38]: 0.016 | in vitro minimum inhibitory concentration [39]: 0.063 | in vitro minimum inhibitory concentration [40]: 0.016 | minimum inhibitory concentration ([41]; E. coli-25922): >16 µg/mL | minimum inhibitory concentration ([42]; S. agalactiae-1): 0.031 µg/mL (≈ 0.0566 µM)

C=C[C@]1(C)C[C@@H](OC(=O)CSC(C)(C)CNC(=O)[C@H](N)C(C)C)[C@]2(C)[C@H](C)CC[C@]3(CCC(=O)[C@H]32)[C@@H](C)[C@@H]1O [Valnemulin]
in vitro minimum inhibitory concentration [1]: 0.063 | in vitro minimum inhibitory concentration [2]: 0.25 µg/mL | in vitro minimum inhibitory concentration [3]: 0.063 | in vitro minimum inhibitory concentration [4]: 0.25 | in vitro minimum inhibitory concentration [5]: 0.063 | in vitro minimum inhibitory concentration [6]: 0.125 | in vitro minimum inhibitory concentration [7]: 0.063 | in vitro minimum inhibitory concentration [8]: 0.25 | in vitro minimum inhibitory concentration [9]: 0.063 | in vitro minimum inhibitory concentration [10]: 0.063 | in vitro minimum inhibitory concentration [11]: 0.031 | in vitro minimum inhibitory concentration ([12]; in µg/mL): 0.125 | in vitro minimum inhibitory concentration [13]: 0.063 | in vitro minimum inhibitory concentration [14]: 0.063 | in vitro minimum inhibitory concentration ([15]; in µg/mL): 0.063 | in vitro minimum inhibitory concentration [16]: 0.063 | in vitro minimum inhibitory concentration [17]: 0.063 | in vitro minimum inhibitory concentration [18]: 0.063 | in vitro minimum inhibitory concentration [19]: 0.063 | in vitro minimum inhibitory concentration [20]: 0.063 | in vitro minimum inhibitory concentration [21]: 0.25 µg/mL | in vitro minimum inhibitory concentration [22]: 0.125 | in vitro minimum inhibitory concentration [23]: 0.063 | in vitro minimum inhibitory concentration [24]: 0.063 | in vitro minimum inhibitory concentration [25]: 0.063 | in vitro minimum inhibitory concentration [26]: 0.063 | in vitro minimum inhibitory concentration [27]: 0.063 | in vitro minimum inhibitory concentration [28]: 0.063 | in vitro minimum inhibitory concentration [29]: 0.125 | in vitro minimum inhibitory concentration [30]: 0.063 | in vitro minimum inhibitory concentration [31]: 0.125 | in vitro minimum inhibitory concentration [32]: 0.063 | in vitro minimum inhibitory concentration [33]: 0.063 | in vitro minimum inhibitory concentration [34]: 0.063 | in vitro minimum inhibitory concentration [35]: 0.063 | in vitro minimum inhibitory concentration [36]: 0.063 | in vitro minimum inhibitory concentration [37]: 0.063 | in vitro minimum inhibitory concentration [38]: 0.063 | in vitro minimum inhibitory concentration [39]: 0.063 | in vitro minimum inhibitory concentration [40]: 0.063 | MIC [41]: 16 µg/mL (≈ 28.3 µM) | MIC [42]: 0.031 µg/mL (≈ 0.0549 µM)
